What was measured:
[1] = antioxidant property, hydroquinone test method; type: physicochemical; details: oil-in-water cream, 2% hydroquinone, test substance 0.4 M, room temperature, 5 days
Source text: (§1) An antioxidant may be defined as a substance capable of preventing or inhibiting oxidation. […] The antioxidant property is readily determined by using any one of the following test methods: prevention or retardation of air oxidation of (a) anthralin, (b) hydroquinone, or (c) banana peel. A freshly prepared anthralin solution or cream is bright yellow, and an air oxidized one is brownish or black. A hydroquinone solution or cream is colorless or white color, and an air oxidized one is brownish or black. A freshly peeled banana peel is light yellow in color and an oxidized one ranges in color from tan, dark tan, brown to brownish black.
Antioxidant property of an oligosaccharide aldonic acid may also be determined by utilizing hydroquinone test method as follows. Hydroquinone also known as 1,4-dihydroxybenzene is a white powder, and a composition containing hydroquinone without a suitable antioxidant is chemically unstable even at room temperature. For example, hydroquinone 2% in an oil-in-water cream changed in color from white to grey within 2 hours, and the cream became light brown within 48 hours and dark brown after 72 hours at room temperature.

[2] = antioxidant property, banana peel test method; details: 2×2 cm peels in 5 ml 0.1 M test solution; water control tan within 4 hours
Source text: as §1
For example, in control experiments, fresh banana peels cut into sizes of 1×2 cm in 50 mm plastic petri dishes containing 5 ml water at neutral or acidic pH changed in color from white-yellowish to tan within 6 hours at room temperature, and changed to dark tan color during the next period of 24 to 72 hours.
Antioxidant property of an oligosaccharide aldonic acid may also be determined by utilizing banana peel test method as follows.
A fresh ripe banana peel cut into sizes of 2×2 cm has the outer layer light yellow in color. These freshly cut banana peels after exposed to air or immersed in an aqueous solution without an antioxidant in 50 mm plastic petri dishes rapidly changed in color from yellowish to tan within 3 hours, dark tan within 24 hours and brown black after 72 hours. A test substance including a positive control such as vitamin C, citric acid or N-acetylcysteine was prepared as 0.1 M concentration, and each test dish contained 5 ml test solution. Freshly cut banana peels 2×2 cm in sizes were immersed in 5 ml test solutions including known antioxidants and vehicle controls with pH at 7.0 and 4.0. […] The same results were also found for the known antioxidant substances; vitamin C, citric acid and N-acetylcysteine.

[3] = gel matrix formation on evaporation of an aqueous solution at room temperature; type: physicochemical; details: for gel matrix formation: 1 g in 1 ml water, 20-25° C., slow evaporation; for acid content of the gel film / water retained in the gel film (gel matrix): by weight, 1 g acid in 1 ml water evaporated at room temperature; for original water evaporated: 1 g acid in 1 ml water, room temperature
Source text: In contrast to an alpha hydroxyacid and polyhydroxyacid, an oligosaccharide aldonic acid can form a gel matrix when its aqueous solution is evaporated at room temperature. The transparent gel obtained retains certain amount of water forming a clear gel matrix. The amount of water retention depends on individual oligosaccharide aldonic acid. Examples of gel matrix preparations are provided below.
In one example, a gel matrix can be formed when aqueous solution comprising an oligosaccharide aldonic acid is evaporated at room temperature. The transparent gel thus obtained retains certain amount of water forming a clear gel matrix. The amount of water retention depends on individual oligosaccharide aldonic acid. For example, maltobionic acid 1 g in a beaker was dissolved in water 1 ml, and the solution thus obtained was left at room temperature. Fifty percent of the original water had been evaporated at the end of 24 hours, and 57% at the end of 48 hours, and 60% at the end of 72 hours, and no more or minimal evaporation of water could be detected after 72 hours. A clear gel film thus obtained contained 29% water complexed with maltobionic acid molecules. In the same manner, lactobionic acid formed a clear gel matrix with 14% water molecules and cellobionic acid formed a transparent gel with 7% water molecules.
A typical experiment to determine a gel matrix formation of an oligosaccharide aldonic acid may be carried out as follows.
Maltobionic acid 1 g in a beaker of 3.6 cm diameter and 3.6 cm height was dissolved in water 1 ml, and the solution thus obtained was left at room temperature between 20-25° C. to allow a slow evaporation of the water. […] The continuous transparent film thus obtained consisted of 71% maltobionic acid and 29% water by weight, and was formed as a complex gel matrix between maltobionic acid molecules and water molecules.

[4] = antioxidant property, anthralin test method; type: physicochemical; details: oil-in-water cream, 0.4% anthralin, test substance 0.1 M, 24 hours
Source text: as §1
Antioxidant property of an oligosaccharide aldonic acid may be determined by utilizing anthralin test method as follows.
Anthralin also known as dithranol is a yellowish powder, and a composition containing anthralin without a suitable antioxidant is chemically unstable even at room temperature. For example, anthralin 0.05% in an oil-in-water cream changed in color from yellow to gray within 24 hours at room temperature, and the cream became brownish within 48 hours. Under anhydrous condition, anthralin 0.05% ointment prepared from white petrolatum 2 parts and mineral oil 1 part by weight changed in color from bright yellow to grayish yellow within 24 hours, and the ointment became brownish after 12 days at room temperature.
Based on the above observations, an oil-in-water cream containing 0.4% anthralin with or without a known antioxidant was used as a positive or vehicle control.

[5] = system: chronic atopic eczema and pruritic dry skin; experiment: topical treatment of chronic atopic eczema and pruritic dry skin; type: in vivo, human; details: 17% cream twice daily, person
Source text: A subject with chronic atopic eczema and pruritic dry skin topically applied twice daily maltobionic acid 17% cream to itchy skin areas of eczema and dry skin lesions for two weeks.

[6] = system: xerosis with flaky dry skin; experiment: topical treatment of xerosis of forearms; type: in vivo, human; details: 5% water-in-oil cream twice daily, two weeks, person
Source text: A subject, having xerosis with flaky dry skin condition of their forearms topically applied twice daily maltobionic acid 5% water-in-oil cream for two weeks.

acute erythema on thighs = experiment: topical treatment of acute erythema after hot shower with alkaline soap; type: in vivo, human; details: 3% partially neutralized cream, left thigh, person; control side persisted
Source text: A subject with sensitive skin developed acute erythema on their both thighs after taking hot shower using alkaline soap. They applied 3% partially neutralized maltobionic acid cream on their left thigh and a control cream on their right thigh.

gel matrix formation [3]	Structure (SMILES)	colour change of hydroquinone cream [1]	colour change of banana peels [2]	colour change of anthralin cream [4]	other results
	CC(=O)N[C@@H](CS)C(=O)O [N-acetylcysteine, reference compound]	did not change color	same results		
clear continuous gel film was formed	O=C(O)[C@H](O)[C@@H](O)[C@H](O[C@@H]1O[C@H](CO)[C@@H](O)[C@H](O)[C@H]1O)[C@H](O)CO [cellobionic acid]	did not change color		did not change the color	acid content of the gel film [3]: 93%; water retained in the gel film (gel matrix) [3]: 7%
	O=C(O)CC(O)(CC(=O)O)C(=O)O [citric acid, reference compound]	did not change color	same results		
clear continuous gel film was formed	O=C(O)[C@H](O)[C@@H](O)[C@H](O[C@@H]1O[C@H](CO)[C@H](O)[C@H](O)[C@H]1O)[C@H](O)CO [maltobionic acid]	did not change color	did not change color	did not change the color	original water evaporated ([3]; end of 24 hours): Fifty; original water evaporated ([3]; end of 48 hours): 57%; original water evaporated ([3]; end of 72 hours): 60%; original water evaporated ([3]; end of 96 hours): 60.5%; water retained in the gel film (gel matrix) [3]: 29%; acid content of the gel film ([3]; listed as Maltobionic acid): 71%; water retained in the gel film (gel matrix) ([3]; listed as Maltobionic acid): 29%; eczema lesions ([5]; after two weeks): improved significantly; condition of treated skin ([5]; within a week): became smooth and less dry and itchy; dry skin condition [6]: dry skin condition disappeared completely; erythema and itch (acute erythema on thighs): disappeared within a few minutes
	O=C(O)C(=O)O [oxalic acid, reference compound]			did not change the color	
	O=C1O[C@H]([C@@H](O)CO)C(O)=C1O [vitamin C, reference compound]	did not change color	same results	did not change the color	

Structure (SMILES)	gel matrix formation [3]	colour change of hydroquinone cream [1]	colour change of banana peels [2]	colour change of anthralin cream [4]	other results
O=C(O)[C@H](O)[C@@H](O)[C@H](O)[C@H](O)CO [gluconic acid, reference compound]	did not form any form of a gel matrix				

— patent publication US20120040920A1, “OLIGOSACCHARIDE ALDONIC ACIDS AND THEIR TOPICAL USE” (priority 1999, published 2012)
